Test results from publication PMC9120017, “Inhibition mechanism of the chloride channel TMEM16A by the pore blocker 1PBC” (Nature Communications, 2022).
Where two headings read alike, the source gives them in different places.

Target: T1, mouse TMEM16A mutant I640A (Mus musculus, UniProt Q8BHY3, I640A)
T1 construct: expressed in transfected cells; host or cells: HEK293T
T1 sequence (Q8BHY3 1-960 I640A): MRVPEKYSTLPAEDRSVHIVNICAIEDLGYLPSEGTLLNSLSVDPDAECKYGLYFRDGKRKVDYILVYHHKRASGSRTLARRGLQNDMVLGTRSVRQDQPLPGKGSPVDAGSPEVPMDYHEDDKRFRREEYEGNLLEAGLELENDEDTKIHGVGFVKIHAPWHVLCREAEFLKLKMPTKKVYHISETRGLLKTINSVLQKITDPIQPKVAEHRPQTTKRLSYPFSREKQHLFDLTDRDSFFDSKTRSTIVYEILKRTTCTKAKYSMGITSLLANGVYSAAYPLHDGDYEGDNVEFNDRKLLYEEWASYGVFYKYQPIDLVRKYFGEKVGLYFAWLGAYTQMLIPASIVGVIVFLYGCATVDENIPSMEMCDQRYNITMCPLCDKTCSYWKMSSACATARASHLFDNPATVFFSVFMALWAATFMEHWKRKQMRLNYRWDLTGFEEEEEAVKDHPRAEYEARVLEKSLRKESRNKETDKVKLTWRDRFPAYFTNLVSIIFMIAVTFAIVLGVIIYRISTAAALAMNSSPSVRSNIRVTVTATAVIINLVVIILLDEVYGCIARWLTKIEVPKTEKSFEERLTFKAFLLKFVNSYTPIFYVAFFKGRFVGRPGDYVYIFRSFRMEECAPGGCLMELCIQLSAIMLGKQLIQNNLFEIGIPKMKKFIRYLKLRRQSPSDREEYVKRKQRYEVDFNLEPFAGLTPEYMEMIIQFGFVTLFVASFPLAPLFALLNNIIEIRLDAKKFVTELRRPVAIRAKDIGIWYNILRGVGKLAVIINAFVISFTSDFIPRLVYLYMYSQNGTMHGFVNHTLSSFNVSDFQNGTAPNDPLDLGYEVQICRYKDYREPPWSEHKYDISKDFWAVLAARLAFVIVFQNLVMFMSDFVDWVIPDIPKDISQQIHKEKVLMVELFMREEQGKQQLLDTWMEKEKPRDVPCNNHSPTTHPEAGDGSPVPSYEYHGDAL
Test: Inside-out patch recording of 1PBC block, mutant I640A
Assay type: cell-based
Settings: for IC50: 15 µM Ca2+
Description: HEK293T cells (ATCC CRL-1573) were maintained in Dulbecco’s modified Eagle’s medium (DMEM; Sigma-Aldrich) supplemented with 10 U ml^−1 penicillin, 0.1 mg ml^−1 streptomycin (Sigma-Aldrich), 2 mM L-glutamine (Sigma-Aldrich), and 10% FBS (Sigma-Aldrich) in a humidified atmosphere containing 5% CO2 at 37 °C. HEK293S GnTI^− cells (ATCC CRL-3022) were maintained in HyClone HyCell TransFx-H medium (GE Healthcare) supplemented with 10 U ml^−1 penicillin, 0.1 mg ml^−1 streptomycin, 4 mM L-glutamine, 0.15% poloxamer 188 (Sigma-Aldrich), and 1% FBS in an atmosphere containing 5% CO2 at 185 rpm at 37 °C. The ac splice variant of mouse TMEM16A (UniProt ID: Q8BHY3), mouse TMEM16B (UniProt ID: Q8CFW1), or mouse TMEM16F (UniProt ID: Q6P9J9) bearing a 3C cleavage site, a Venus YFP, a Myc tag, and a Streptavidin-binding peptide (SBP) downstream of the open reading frame in a modified pcDNA3.1 vector (Invitrogen) were used as described previously[21],[31]. Mutations were introduced using a modified QuikChange method[58] and were verified by sequencing.
HEK293T cells were transfected with 3–4 μg DNA per 6 cm Petri dish using the calcium phosphate co-precipitation method and were used within 24–96 h after transfection. Recordings were performed on inside-out patches excised from HEK293T cells expressing the construct of interest. Patch pipettes were pulled from borosilicate glass capillaries (O.D. 1.5 mm, I.D. 0.86 mm, Sutter Instrument) and were fire-polished with a microforge (Narishige) before use. Pipette resistance was typically 3–8 MΩ when filled with the recording solutions detailed below. Seal resistance was typically 4 GΩ or higher. Voltage-clamp recordings were made using Axopatch 200B, Digidata 1550, and Clampex 10.7 (Molecular Devices). Analog signals were filtered with the in-built 4-pole Bessel filter at 10 kHz and were digitized at 20 kHz. Solution exchange was achieved using a gravity-fed system through a theta glass pipette mounted on an ultra-fast piezo-driven stepper (Siskiyou). […] All recordings were performed at 20 °C.
A symmetrical ionic condition was used throughout. Stock solution with Ca^2+-EGTA contained 150 mM NaCl, 5.99 mM Ca(OH)2, 5 mM EGTA, and 10 mM HEPES at pH 7.40. Stock solution with EGTA contained 150 mM NaCl, 5 mM EGTA, and 10 mM HEPES at pH 7.40. Free Ca^2+ concentrations were adjusted by mixing the stock solutions at the required ratios calculated using the WEBMAXC program (http://web.stanford.edu/~cpatton/webmaxcS.htm). Patch pipettes were filled with the stock solution with Ca^2+-EGTA, which has a free Ca^2+ concentration of 1 mM. 1PBC (ChemBridge) stock was reconstituted in anhydrous DMSO (Sigma-Aldrich) at 100 mM and stored at −20 °C. Working solutions with 1PBC were prepared by serial dilution. Unless otherwise stated, experiments were performed at a saturating Ca^2+ concentration as shown in Supplementary Table 1 and the primary data were corrected for current rundown as described previously[21],[25].
Concentration-response relations, obtained from the ratio of the I-V plots before and after the application of the blocker, were fitted to the Hill equation,1 I/Imax=1/1+IC50/[blocker]^h where I/Imax is the normalized current responses, IC50 defines the concentration at which inhibition is at its half-maximum, and h is the Hill coefficient.

IC50 (0 mV): 31.5 µM
remaining activity at 3 µM (0 mV, 1PBC conc 3, read-out: relative current in 1PBC (avr)): 90.3%
remaining activity at 10 µM (0 mV, 1PBC conc 10, read-out: relative current in 1PBC (avr)): 75.5%
remaining activity at 30 µM (0 mV, 1PBC conc 30, read-out: relative current in 1PBC (avr)): 52.3%
remaining activity at 100 µM (0 mV, 1PBC conc 100, read-out: relative current in 1PBC (avr)): 23.3%
remaining activity at 3 µM (3 µM 1PBC, +80 mV, saturating Ca2+ (15 µM), read-out: I/Imax): 89.4%
remaining activity at 3 µM (3 µM 1PBC, -80 mV, saturating Ca2+ (15 µM), read-out: I/Imax): 92.4%
remaining activity at 10 µM (10 µM 1PBC, +80 mV, saturating Ca2+ (15 µM), read-out: I/Imax): 67.9%
remaining activity at 10 µM (10 µM 1PBC, -80 mV, saturating Ca2+ (15 µM), read-out: I/Imax): 84.6%
remaining activity at 30 µM (30 µM 1PBC, +80 mV, saturating Ca2+ (15 µM), read-out: I/Imax): 43%
remaining activity at 30 µM (30 µM 1PBC, -80 mV, saturating Ca2+ (15 µM), read-out: I/Imax): 64.1%
remaining activity at 100 µM (100 µM 1PBC, +80 mV, saturating Ca2+ (15 µM), read-out: I/Imax): 17.7%
remaining activity at 100 µM (100 µM 1PBC, -80 mV, saturating Ca2+ (15 µM), read-out: I/Imax): 34.6%
normalised current (avr) (1PBC 3, V 0 mV): -0.001271
normalised current (avr) (1PBC 3, V 40 mV): 0.2411
normalised current (avr) (1PBC 3, V 60 mV): 0.367
normalised current (avr) (1PBC 3, V 80 mV): 0.5025
normalised current (avr) (1PBC 3, V 100 mV): 0.651
normalised current (avr) (1PBC 3, V 120 mV): 0.7973
normalised current (avr) (1PBC 3, V 140 mV): 0.965
normalised current (avr) (1PBC 3, V -20 mV): -0.1226
normalised current (avr) (1PBC 3, V -40 mV): -0.2495
normalised current (avr) (1PBC 3, V -60 mV): -0.3836
normalised current (avr) (1PBC 3, V -80 mV): -0.5286
normalised current (avr) (1PBC 3, V -100 mV): -0.6862
normalised current (avr) (1PBC 3, V -120 mV): -0.8514
normalised current (avr) (1PBC 3, V -140 mV): -1.031
normalised current (avr) (1PBC 10, V 0 mV): -0.001063
normalised current (avr) (1PBC 10, V 40 mV): 0.1907
normalised current (avr) (1PBC 10, V 60 mV): 0.2862
normalised current (avr) (1PBC 10, V 80 mV): 0.3819
normalised current (avr) (1PBC 10, V 100 mV): 0.495
normalised current (avr) (1PBC 10, V 120 mV): 0.6083
normalised current (avr) (1PBC 10, V 140 mV): 0.7528
normalised current (avr) (1PBC 10, V -20 mV): -0.1054
normalised current (avr) (1PBC 10, V -40 mV): -0.2204
normalised current (avr) (1PBC 10, V -60 mV): -0.3486
normalised current (avr) (1PBC 10, V -80 mV): -0.4836
normalised current (avr) (1PBC 10, V -100 mV): -0.6367
normalised current (avr) (1PBC 10, V -120 mV): -0.7969
normalised current (avr) (1PBC 10, V -140 mV): -0.9705
normalised current (avr) (1PBC 30, V 0 mV): -0.0007361
normalised current (avr) (1PBC 30, V 40 mV): 0.1262
normalised current (avr) (1PBC 30, V 60 mV): 0.1828
normalised current (avr) (1PBC 30, V 80 mV): 0.2416
normalised current (avr) (1PBC 30, V 100 mV): 0.3073
normalised current (avr) (1PBC 30, V 120 mV): 0.3826
normalised current (avr) (1PBC 30, V 140 mV): 0.476
normalised current (avr) (1PBC 30, V -20 mV): -0.07452
normalised current (avr) (1PBC 30, V -40 mV): -0.1601
normalised current (avr) (1PBC 30, V -60 mV): -0.2555
normalised current (avr) (1PBC 30, V -80 mV): -0.3668
normalised current (avr) (1PBC 30, V -100 mV): -0.4877
normalised current (avr) (1PBC 30, V -120 mV): -0.6228
normalised current (avr) (1PBC 30, V -140 mV): -0.7629
normalised current (avr) (1PBC 100, V 0 mV): -0.0003287
normalised current (avr) (1PBC 100, V 60 mV): 0.07288
normalised current (avr) (1PBC 100, V 80 mV): 0.09923
normalised current (avr) (1PBC 100, V 100 mV): 0.1285
normalised current (avr) (1PBC 100, V 120 mV): 0.1506
normalised current (avr) (1PBC 100, V 140 mV): 0.1846
normalised current (avr) (1PBC 100, V -20 mV): -0.0346
normalised current (avr) (1PBC 100, V -40 mV): -0.07836
normalised current (avr) (1PBC 100, V -60 mV): -0.1311
normalised current (avr) (1PBC 100, V -80 mV): -0.1979
normalised current (avr) (1PBC 100, V -100 mV): -0.2777
normalised current (avr) (1PBC 100, V -120 mV): -0.3667
normalised current (avr) (1PBC 100, V -140 mV): -0.4836
IC50 (20 mV): 27.5 µM
remaining activity at 3 µM (20 mV, 1PBC conc 3, read-out: relative current in 1PBC (avr)): 89.4%
remaining activity at 10 µM (20 mV, 1PBC conc 10, read-out: relative current in 1PBC (avr)): 72.5%
remaining activity at 30 µM (20 mV, 1PBC conc 30, read-out: relative current in 1PBC (avr)): 49.1%
remaining activity at 100 µM (20 mV, 1PBC conc 100, read-out: relative current in 1PBC (avr)): 20.9%
IC50 (40 mV): 24.7 µM
remaining activity at 3 µM (40 mV, 1PBC conc 3, read-out: relative current in 1PBC (avr)): 89%
remaining activity at 10 µM (40 mV, 1PBC conc 10, read-out: relative current in 1PBC (avr)): 70.4%
remaining activity at 30 µM (40 mV, 1PBC conc 30, read-out: relative current in 1PBC (avr)): 46.6%
Compound: N#Cc1c(C(F)(F)F)cc(O)n2c1nc1ccccc12 [1PBC]
